Data: PubChem BioAssay AID256 (DTP/NCI, 2004)
Several values for one entry are separate records, joined by “and”; a condition that tells them apart may be missing. Identical values can stand only once. Toxic doses and inconclusive results are not listed.

Tested on: CD2F1 mice, L1210 leukemia ip, survival T/C
Experiment: NCI In Vivo Anticancer Drug Screen. Data for tumor model L1210 Leukemia (intraperitoneal) in CD2F1 (CDF1) mice
Details: higher = longer survival
Summary of the method: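 Each value reflects a quotient of treated over vehicle control outcomes in mice with a transplanted tumor.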

[1] = endpoint: mean survival time, dose: 12.5 mg/kg/injection, schedule: Q01DX009 (ip), vehicle: saline with Tween-80
[2] = endpoint: mean survival time, dose: 25.0 mg/kg/injection, schedule: Q01DX009 (ip), vehicle: saline with Tween-80
[3] = endpoint: mean survival time, dose: 100.0 mg/kg/injection, schedule: Q04DX002 (ip), vehicle: saline with Tween-80
[4] = endpoint: mean survival time, dose: 200.0 mg/kg/injection, schedule: Q04DX002 (ip), vehicle: saline with Tween-80
[5] = endpoint: mean survival time, dose: 400.0 mg/kg/injection, schedule: Q04DX002 (ip), vehicle: saline with Tween-80
[6] = endpoint: mean survival time, dose: 100.0 mg/kg/injection, schedule: Q01DX009 (ip), vehicle: saline with Tween-80
[7] = endpoint: mean survival time, dose: 200.0 mg/kg/injection, schedule: Q01DX009 (ip), vehicle: saline with Tween-80
[8] = endpoint: mean survival time, dose: 400.0 mg/kg/injection, schedule: Q01DX009 (ip), vehicle: saline with Tween-80
[9] = endpoint: mean survival time, dose: 100.0 mg/kg/injection, schedule: Q04DX003 (ip), vehicle: saline with Tween-80
[10] = endpoint: mean survival time, dose: 200.0 mg/kg/injection, schedule: Q04DX003 (ip), vehicle: saline with Tween-80
[11] = endpoint: mean survival time, dose: 400.0 mg/kg/injection, schedule: Q04DX003 (ip), vehicle: saline with Tween-80

Structure (SMILES): CN1CCN(c2ccc3nc(-c4ccc5nc(-c6ccc(O)cc6)[nH]c5c4)[nH]c3c2)CC1
- T/C (endpoint: mean survival time, dose: 6.25 mg/kg/injection, schedule: Q01DX009 (ip), vehicle: saline): 124 % of control
- T/C (endpoint: mean survival time, dose: 12.5 mg/kg/injection, schedule: Q01DX009 (ip), vehicle: saline): 124 % of control
- T/C (endpoint: mean survival time, dose: 25.0 mg/kg/injection, schedule: Q01DX009 (ip), vehicle: saline): 183 % of control
- T/C (endpoint: mean survival time, dose: 50.0 mg/kg/injection, schedule: Q01DX009 (ip), vehicle: saline): 238 % of control and 314 % of control
- T/C (endpoint: mean survival time, dose: 100.0 mg/kg/injection, schedule: Q01DX009 (ip), vehicle: saline): 294 % of control
- T/C (endpoint: median survival time, dose: 6.25 mg/kg/injection, schedule: Q01DX009 (ip), vehicle: saline): 124 % of control
- T/C (endpoint: median survival time, dose: 12.5 mg/kg/injection, schedule: Q01DX009 (ip), vehicle: saline): 117 % of control and 120 % of control
- T/C (endpoint: median survival time, dose: 18.0 mg/kg/injection, schedule: Q01DX005 (ip), vehicle: saline): 119 % of control
- T/C (endpoint: median survival time, dose: 18.0 mg/kg/injection, schedule: Q01DX005 (iv), vehicle: saline): 116 % of control
- T/C (endpoint: median survival time, dose: 37.0 mg/kg/injection, schedule: Q01DX005 (iv), vehicle: saline): 115 % of control
- T/C (endpoint: median survival time, dose: 50.0 mg/kg/injection, schedule: Q01DX005 (oral), vehicle: saline): 101 % of control
- T/C (endpoint: median survival time, dose: 50.0 mg/kg/injection, schedule: Q01DX009 (ip), vehicle: saline): 226 % of control and 344 % of control
- T/C (endpoint: median survival time, dose: 75.0 mg/kg/injection, schedule: Q01DX005 (ip), vehicle: saline): 151 % of control
- T/C (endpoint: median survival time, dose: 100.0 mg/kg/injection, schedule: Q01DX005 (oral), vehicle: saline): 96 % of control
- T/C (endpoint: median survival time, dose: 150.0 mg/kg/injection, schedule: Q01DX005 (ip), vehicle: saline): 348 % of control
- T/C (endpoint: median survival time, dose: 200.0 mg/kg/injection, schedule: Q01DX005 (oral), vehicle: saline): 94 % of control
- T/C (endpoint: median survival time, dose: 200.0 mg/kg/injection, schedule: Q01DX009 (ip), vehicle: saline): 116 % of control and 91 % of control
- T/C (endpoint: median survival time, dose: 400.0 mg/kg/injection, schedule: Q01DX005 (oral), vehicle: saline): 96 % of control
- T/C (endpoint: median survival time, dose: 800.0 mg/kg/injection, schedule: Q01DX005 (oral), vehicle: saline): 94 % of control

Structure (SMILES): COC1OC(COC(=O)c2ccc([N+](=O)[O-])cc2)C(SC#N)C1OC(=O)c1ccc([N+](=O)[O-])cc1 (stereo unspecified)
- T/C (endpoint: mean survival time, dose: 50.0 mg/kg/injection, schedule: Q01DX001 (ip), vehicle: saline): 101 % of control
- T/C (endpoint: mean survival time, dose: 100.0 mg/kg/injection, schedule: Q01DX001 (ip), vehicle: saline): 101 % of control
- T/C (endpoint: mean survival time, dose: 200.0 mg/kg/injection, schedule: Q01DX001 (ip), vehicle: saline): 91 % of control
- T/C (endpoint: mean survival time, dose: 400.0 mg/kg/injection, schedule: Q01DX001 (ip), vehicle: saline): 101 % of control

Structure (SMILES): O=[N+]([O-])c1ccc(/C=N/O)s1
- T/C [1]: 106 % of control
- T/C [2]: 98 % of control

Structure (SMILES): CCCCC(=O)/C=C/c1ccccc1
- T/C (endpoint: mean survival time, dose: 50.0 mg/kg/injection, schedule: Q04DX002 (ip), vehicle: saline with Tween-80): 97 % of control
- T/C [3]: 87 % of control
- T/C [4]: 105 % of control
- T/C [5]: 91 % of control

Structure (SMILES): N#CC1CCCC[N-]1.[NH-]CC[N-]CC[NH-].[Pt+4] (stereo unspecified)
- T/C (endpoint: mean survival time, dose: 12.5 mg/kg/injection, schedule: Q01DX009 (ip), vehicle: water): 93 % of control
- T/C (endpoint: mean survival time, dose: 25.0 mg/kg/injection, schedule: Q01DX009 (ip), vehicle: water): 95 % of control
- T/C (endpoint: mean survival time, dose: 50.0 mg/kg/injection, schedule: Q01DX009 (ip), vehicle: water): 97 % of control
- T/C (endpoint: mean survival time, dose: 100.0 mg/kg/injection, schedule: Q01DX009 (ip), vehicle: water): 88 % of control

Structure (SMILES): O=C(N/N=C/c1cccc([N+](=O)[O-])c1)c1ccccc1
- T/C [6]: 107 % of control
- T/C [7]: 102 % of control
- T/C [8]: 94 % of control

Structure (SMILES): Cc1cc(N)nc2ccccc12
- T/C (endpoint: mean survival time, dose: 3.12 mg/kg/injection, schedule: Q04DX002 (ip), vehicle: saline with Tween-80): 101 % of control
- T/C (endpoint: mean survival time, dose: 6.25 mg/kg/injection, schedule: Q04DX002 (ip), vehicle: saline with Tween-80): 105 % of control
- T/C (endpoint: mean survival time, dose: 12.5 mg/kg/injection, schedule: Q04DX002 (ip), vehicle: saline with Tween-80): 94 % of control and 101 % of control

Structure (SMILES): CC1(C)OC(=O)C(c2ccccc2)O1 (stereo unspecified)
- T/C [9]: 100 % of control
- T/C [10]: 98 % of control
- T/C [11]: 104 % of control

Structure (SMILES): Cc1cccc(N=Cc2ccccc2O)c1
- T/C (endpoint: mean survival time, dose: 100.0 mg/kg/injection, schedule: Q01DX001 (ip), vehicle: saline with Tween-80): 88 % of control
- T/C (endpoint: mean survival time, dose: 200.0 mg/kg/injection, schedule: Q01DX001 (ip), vehicle: saline with Tween-80): 97 % of control

Structure (SMILES): COc1cc(Cl)ccc1NC(=O)Nc1cccc(C(=O)O)c1
- T/C [1]: 97 % of control
- T/C [2]: 90 % of control
- T/C (endpoint: mean survival time, dose: 50.0 mg/kg/injection, schedule: Q01DX009 (ip), vehicle: saline with Tween-80): 90 % of control
- T/C [6]: 96 % of control
- T/C [7]: 90 % of control

Structure (SMILES): Clc1ccc(NC2=NCCO2)cc1
- T/C (endpoint: mean survival time, dose: 100.0 mg/kg/injection, schedule: Q04DX003 (ip), vehicle: Klucel (hydroxypropylcellulose) (HPC)): 94 % of control

Structure (SMILES): CN(C)N=C1CCCC1
- T/C (endpoint: mean survival time, dose: 50.0 mg/kg/injection, schedule: Q04DX003 (ip), vehicle: saline with Tween-80): 101 % of control
- T/C (endpoint: mean survival time, dose: 75.0 mg/kg/injection, schedule: Q01DX001 (ip), vehicle: saline): 98 % of control
- T/C [9]: 95 % of control
- T/C (endpoint: mean survival time, dose: 150.0 mg/kg/injection, schedule: Q01DX001 (ip), vehicle: saline): 100 % of control
- T/C [10]: 100 % of control

Structure (SMILES): Clc1ccc(-c2cc(-c3ccc(Cl)cc3)cc(-c3ccc(Cl)cc3)c2)cc1
- T/C [6]: 101 % of control
- T/C [7]: 106 % of control
- T/C [8]: 105 % of control

Structure (SMILES): CCC(=O)c1cc2c(c3c1CCCC3)CCCC2
- T/C (endpoint: mean survival time, dose: 25.0 mg/kg/injection, schedule: Q01DX009 (ip), vehicle: other): 104 % of control
- T/C (endpoint: mean survival time, dose: 50.0 mg/kg/injection, schedule: Q01DX009 (ip), vehicle: other): 98 % of control
- T/C (endpoint: mean survival time, dose: 100.0 mg/kg/injection, schedule: Q01DX009 (ip), vehicle: other): 104 % of control

Structure (SMILES): CN(C)C(=O)Nc1cccc2ccccc12
- T/C [3]: 94 % of control
- T/C [4]: 105 % of control
- T/C [5]: 90 % of control

Structure (SMILES): COc1nc(NC2OC(CO)C(O)C(O)C2O)c(C(C)=O)c(=O)n1C (stereo unspecified)
- T/C (endpoint: median survival time, dose: 12.5 mg/kg/injection, schedule: Q01DX005 (ip), vehicle: saline with Tween-80): 94 % of control
- T/C (endpoint: median survival time, dose: 25.0 mg/kg/injection, schedule: Q01DX005 (ip), vehicle: saline with Tween-80): 98 % of control
- T/C (endpoint: median survival time, dose: 50.0 mg/kg/injection, schedule: Q01DX005 (ip), vehicle: saline with Tween-80): 100 % of control
- T/C (endpoint: median survival time, dose: 100.0 mg/kg/injection, schedule: Q01DX005 (ip), vehicle: saline with Tween-80): 97 % of control
- T/C (endpoint: median survival time, dose: 200.0 mg/kg/injection, schedule: Q01DX005 (ip), vehicle: saline with Tween-80): 98 % of control

Structure (SMILES): Cn1c(=O)c2c(ncn2CC(=O)NNC(=S)Nc2ccccc2)n(C)c1=O
- T/C (endpoint: mean survival time, dose: 12.5 mg/kg/injection, schedule: Q01DX005 (ip), vehicle: distilled water + Tween-80): 121 % of control
- T/C (endpoint: mean survival time, dose: 25.0 mg/kg/injection, schedule: Q01DX005 (ip), vehicle: distilled water + Tween-80): 121 % of control
- T/C (endpoint: mean survival time, dose: 50.0 mg/kg/injection, schedule: Q01DX005 (ip), vehicle: distilled water + Tween-80): 93 % of control
- T/C (endpoint: mean survival time, dose: 100.0 mg/kg/injection, schedule: Q01DX005 (ip), vehicle: distilled water + Tween-80): 106 % of control
- T/C (endpoint: mean survival time, dose: 200.0 mg/kg/injection, schedule: Q01DX005 (ip), vehicle: distilled water + Tween-80): 93 % of control

Structure (SMILES): O=C1c2ccccc2C(=O)N1C1CCCCC1
- T/C [9]: 100 % of control
- T/C [10]: 95 % of control
- T/C [11]: 95 % of control

Structure (SMILES): S=C1SCCS1
- T/C (endpoint: mean survival time, dose: 100.0 mg/kg/injection, schedule: Q04DX003 (ip), vehicle: saline sonified): 98 % of control
- T/C (endpoint: mean survival time, dose: 200.0 mg/kg/injection, schedule: Q04DX003 (ip), vehicle: saline sonified): 107 % of control
- T/C (endpoint: mean survival time, dose: 400.0 mg/kg/injection, schedule: Q04DX003 (ip), vehicle: saline sonified): 89 % of control

Structure (SMILES): Cc1ccc(-c2nc3ncnc(N)c3[nH]2)cc1[N+](=O)[O-]
- T/C (endpoint: mean survival time, dose: 37.5 mg/kg/injection, schedule: Q01DX001 (ip), vehicle: saline with Tween-80): 101 % of control
- T/C (endpoint: mean survival time, dose: 75.0 mg/kg/injection, schedule: Q01DX001 (ip), vehicle: saline with Tween-80): 90 % of control
- T/C (endpoint: mean survival time, dose: 150.0 mg/kg/injection, schedule: Q01DX001 (ip), vehicle: saline with Tween-80): 88 % of control

Structure (SMILES): C=COCCCCCCCCCCCCCCCCCC
- T/C (endpoint: mean survival time, dose: 100.0 mg/kg/injection, schedule: Q04DX003 (ip), vehicle: other): 108 % of control
- T/C (endpoint: mean survival time, dose: 200.0 mg/kg/injection, schedule: Q04DX003 (ip), vehicle: other): 108 % of control
- T/C (endpoint: mean survival time, dose: 400.0 mg/kg/injection, schedule: Q04DX003 (ip), vehicle: other): 98 % of control
